Source: paper PMC9090415, “Discovery of small molecule inhibitors of Plasmodium falciparum apicoplast DNA polymerase” (Journal of Enzyme Inhibition and Medicinal Chemistry, 2022)

Molecular target: T1, bacteriophage T4 DNA polymerase (Enterobacteria phage T4, UniProt P04415)
T1 construct: made in house
T1 sequence (P04415 1-898): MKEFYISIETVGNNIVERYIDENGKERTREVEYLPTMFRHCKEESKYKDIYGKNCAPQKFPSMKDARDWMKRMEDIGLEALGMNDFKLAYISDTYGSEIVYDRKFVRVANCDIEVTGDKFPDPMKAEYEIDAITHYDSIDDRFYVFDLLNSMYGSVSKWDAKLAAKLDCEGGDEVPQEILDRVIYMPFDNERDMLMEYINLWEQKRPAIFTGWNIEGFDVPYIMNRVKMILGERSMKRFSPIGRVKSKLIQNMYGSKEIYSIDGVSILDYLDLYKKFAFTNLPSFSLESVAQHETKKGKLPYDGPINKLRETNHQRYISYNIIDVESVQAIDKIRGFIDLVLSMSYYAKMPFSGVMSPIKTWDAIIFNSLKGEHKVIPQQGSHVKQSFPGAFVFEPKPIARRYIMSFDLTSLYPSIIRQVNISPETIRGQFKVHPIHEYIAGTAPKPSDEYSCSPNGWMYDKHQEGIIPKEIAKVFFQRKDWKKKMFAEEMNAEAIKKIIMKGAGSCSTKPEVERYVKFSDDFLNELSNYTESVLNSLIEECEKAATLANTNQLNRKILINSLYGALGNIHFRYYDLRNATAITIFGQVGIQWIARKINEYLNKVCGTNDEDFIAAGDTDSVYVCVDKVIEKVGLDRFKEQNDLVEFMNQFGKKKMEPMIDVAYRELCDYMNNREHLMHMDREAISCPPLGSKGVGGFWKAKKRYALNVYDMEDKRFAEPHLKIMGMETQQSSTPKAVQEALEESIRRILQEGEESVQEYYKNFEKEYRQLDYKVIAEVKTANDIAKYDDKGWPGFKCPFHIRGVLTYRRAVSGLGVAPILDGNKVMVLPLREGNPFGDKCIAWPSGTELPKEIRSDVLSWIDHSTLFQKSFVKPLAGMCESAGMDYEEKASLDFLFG
Assay: Counter-screen against bacteriophage T4 DNA polymerase
Type: biochemical
Conditions: for % inhibition T4 10' 2.5 / % inhibition T4 10' 5 / % inhibition T4 10' 10 / % inhibition T4 10' 20 / % inhibition T4 10' 40 / % inhibition T4 10' 80: read at 10'
In short: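 IC50 values come from dose-response testing of each compound against T4 DNA polymerase. This B-family polymerase was purified in-house and used as the counter-screen.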

SMILES: O=C1C(=Cc2ccccc2O)Oc2ccc(O)cc21 [KU0196475]
- % inhibition T4 10' (DRC-2, concentration 80): 34%
- % inhibition T4 40' (DRC-2, concentration 2.5): 10%
- % inhibition T4 40' (DRC-2, concentration 5): 10%
- % inhibition T4 40' (DRC-2, concentration 10): 21%
- % inhibition T4 90' (DRC-2, concentration 10): 21%
- % inhibition T4 90' (DRC-2, concentration 40): 34%

SMILES: Cc1ccc2c(C(=O)NCCc3cccnc3)cc(NC(=O)C(C)C)cc2n1 [KU0206096]
- % inhibition T4 10' (DRC-2, concentration 5): 8%
- % inhibition T4 10' (DRC-2, concentration 10): 30%
- % inhibition T4 10' (DRC-2, concentration 80): 35%
- % inhibition T4 40' (DRC-2, concentration 2.5): 8%
- % inhibition T4 40' (DRC-2, concentration 20): 35%
- % inhibition T4 90' (DRC-2, concentration 10): 28%
- % inhibition T4 90' (DRC-2, concentration 20): 30%
- % inhibition T4 90' (DRC-2, concentration 40): 34%
- % inhibition T4 180' (DRC-2, concentration 40): 28%
- % inhibition T4 180' (DRC-2, concentration 80): 34%

SMILES: CCC(C)NC(=O)c1cc(NC(C)=O)cc2nc(C)ccc12 (stereo not shown) [KU0206314]
- % inhibition T4 10' (DRC-2, concentration 80): 42%
- % inhibition T4 90' (DRC-2, concentration 2.5): 13%
- % inhibition T4 90' (DRC-2, concentration 5): 13%
- % inhibition T4 90' (DRC-2, concentration 80): 42%

SMILES: Cc1nc(C)c2c(n1)N(CC1CCCCC1)C(=O)CC2 [KU0218606]
- % inhibition T4 10' 2.5 (DRC-1, concentration 2.5): -4.605%
- % inhibition T4 10' 5 (DRC-1, concentration 5): -3.989%
- % inhibition T4 10' 10 (DRC-1, concentration 10): -2.764%
- % inhibition T4 10' 20 (DRC-1, concentration 20): -3.758%
- % inhibition T4 10' 40 (DRC-1, concentration 40): -2.983%
- % inhibition T4 10' 80 (DRC-1, concentration 80): -2.366%
- % inhibition T4 70' 2.5 (DRC-1, read at 70', concentration 2.5): -6.824%
- % inhibition T4 70' 5 (DRC-1, read at 70', concentration 5): -8.391%
- % inhibition T4 70' 10 (DRC-1, read at 70', concentration 10): -4.959%
- % inhibition T4 70' 20 (DRC-1, read at 70', concentration 20): -8.03%
- % inhibition T4 70' 40 (DRC-1, read at 70', concentration 40): -3.675%
- % inhibition T4 70' 80 (DRC-1, read at 70', concentration 80): -5.307%
- % inhibition T4 130' 2.5 (DRC-1, read at 130', concentration 2.5): -8.748%
- % inhibition T4 130' 5 (DRC-1, read at 130', concentration 5): -10.3586%
- % inhibition T4 130' 10 (DRC-1, read at 130', concentration 10): -7.013%
- % inhibition T4 130' 20 (DRC-1, read at 130', concentration 20): -9.978%
- % inhibition T4 130' 40 (DRC-1, read at 130', concentration 40): -5.652%
- % inhibition T4 130' 80 (DRC-1, read at 130', concentration 80): -8.474%
- % inhibition T4 10' 2.5 (DRC-2, concentration 2.5): 4%
- % inhibition T4 10' 5 (DRC-2, concentration 5): 4.39%
- % inhibition T4 10' 10 (DRC-2, concentration 10): 6%
- % inhibition T4 10' 20 (DRC-2, concentration 20): 5.27%
- % inhibition T4 10' 40 (DRC-2, concentration 40): 12%
- % inhibition T4 10' 80 (DRC-2, concentration 80): 12%
- % inhibition T4 40' 2.5 (DRC-2, read at 40', concentration 2.5): 4%
- % inhibition T4 40' 5 (DRC-2, read at 40', concentration 5): 4.39%
- % inhibition T4 40' 10 (DRC-2, read at 40', concentration 10): 6%
- % inhibition T4 40' 20 (DRC-2, read at 40', concentration 20): 5.27%
- % inhibition T4 40' 40 (DRC-2, read at 40', concentration 40): 12%
- % inhibition T4 40' 80 (DRC-2, read at 40', concentration 80): 12%
- % inhibition T4 90' 2.5 (DRC-2, read at 90', concentration 2.5): 4%
- % inhibition T4 90' 5 (DRC-2, read at 90', concentration 5): 5%
- % inhibition T4 90' 10 (DRC-2, read at 90', concentration 10): 7%
- % inhibition T4 90' 20 (DRC-2, read at 90', concentration 20): 7%
- % inhibition T4 90' 40 (DRC-2, read at 90', concentration 40): 11%
- % inhibition T4 90' 80 (DRC-2, read at 90', concentration 80): 11%
- % inhibition T4 180' 2.5 (DRC-2, read at 180', concentration 2.5): -0.169%
- % inhibition T4 180' 5 (DRC-2, read at 180', concentration 5): 0.674%
- % inhibition T4 180' 10 (DRC-2, read at 180', concentration 10): 3%
- % inhibition T4 180' 20 (DRC-2, read at 180', concentration 20): 2%
- % inhibition T4 180' 40 (DRC-2, read at 180', concentration 40): 8%
- % inhibition T4 180' 80 (DRC-2, read at 180', concentration 80): 8%

SMILES: Cl.NC(CO)C(=O)NNCc1ccc(O)c(O)c1O (stereo not shown) [KU0260493]
- % inhibition T4 10' (DRC-2, concentration 2.5): -17%
- % inhibition T4 10' (DRC-2, concentration 10): -11%
- % inhibition T4 90' (DRC-2, concentration 2.5): -11%
- % inhibition T4 180' (DRC-2, concentration 5): -17%

SMILES: Cc1nc(/N=N/c2ccc(C(=O)[O-])cc2)c(COP(=O)([O-])[O-])c(C=O)c1O.[Na+].[Na+].[Na+] [KU0261395]
- % inhibition T4 10' (DRC-2, concentration 2.5): -16%
- % inhibition T4 10' (DRC-2, concentration 5): -9%
- % inhibition T4 10' (DRC-2, concentration 40): -10%
- % inhibition T4 10' (DRC-2, concentration 80): -18%
- % inhibition T4 40' (DRC-2, concentration 2.5): -20%
- % inhibition T4 40' (DRC-2, concentration 5): -16%
- % inhibition T4 40' (DRC-2, concentration 80): -18%
- % inhibition T4 90' (DRC-2, concentration 2.5): -20%
- % inhibition T4 90' (DRC-2, concentration 5): -18%
- % inhibition T4 90' (DRC-2, concentration 10): -9%
- % inhibition T4 90' (DRC-2, concentration 40): -11%
- % inhibition T4 180' (DRC-2, concentration 20): -9%
- % inhibition T4 180' (DRC-2, concentration 40): -11%
- % inhibition T4 180' (DRC-2, concentration 80): -10%

SMILES: CN(C)S(=O)(=O)Oc1ccc(-c2noc(-c3ccc(Oc4cc(Cl)cc(Cl)c4)o3)n2)cc1 [KU0263859]
- % inhibition T4 10' (DRC-2, concentration 5): 17%
- % inhibition T4 10' (DRC-2, concentration 10): 35%
- % inhibition T4 10' (DRC-2, concentration 20): 35%
- % inhibition T4 40' (DRC-2, concentration 5): 17%
- % inhibition T4 40' (DRC-2, concentration 20): 38%
- % inhibition T4 40' (DRC-2, concentration 40): 43%
- % inhibition T4 40' (DRC-2, concentration 80): 43%
- % inhibition T4 90' (DRC-2, concentration 20): 35%
- % inhibition T4 180' (DRC-2, concentration 40): 38%
- % inhibition T4 180' (DRC-2, concentration 80): 43%

SMILES: N#CC(=NNc1cc(C(F)(F)F)cc(C(F)(F)F)c1)C(=O)c1ccco1 [KU0264276]
- % inhibition T4 10' (DRC-2, concentration 2.5): 9%
- % inhibition T4 10' (DRC-2, concentration 5): 9%
- % inhibition T4 10' (DRC-2, concentration 20): 13%
- % inhibition T4 10' (DRC-2, concentration 40): 19%
- % inhibition T4 40' (DRC-2, concentration 2.5): 7%
- % inhibition T4 40' (DRC-2, concentration 5): 9%
- % inhibition T4 40' (DRC-2, concentration 10): 13%
- % inhibition T4 40' (DRC-2, concentration 20): 13%
- % inhibition T4 40' (DRC-2, concentration 40): 19%
- % inhibition T4 40' (DRC-2, concentration 80): 19%
- % inhibition T4 90' (DRC-2, concentration 5): 7%
- % inhibition T4 180' (DRC-2, concentration 40): 13%
- % inhibition T4 180' (DRC-2, concentration 80): 19%
